Results from the NIST ThermoML archive (doi:10.1021/je100851w).

Assay: xn = mol fraction of the nth substance listed
Settings: Vibrating tube method

S [hydrogen sulfide] + CCC
Settings | mass density [kg/m3]
333.22 K, 2048 kPa, Gas, x1 = 0.2227 | 40
333.22 K, 2176 kPa, Gas, x1 = 0.2227 | 43.6
333.22 K, 2300 kPa, Gas, x1 = 0.2227 | 47.2
333.22 K, 2398 kPa, Gas, x1 = 0.2227 | 50.2
333.22 K, 2551 kPa, Gas, x1 = 0.2227 | 55.6
333.22 K, 2630 kPa, Gas, x1 = 0.2227 | 59.1
333.22 K, 2722 kPa, Gas, x1 = 0.2227 | 62.4
333.22 K, 2778 kPa, Gas, x1 = 0.2227 | 65.4
333.22 K, 3571 kPa, Liquid, x1 = 0.2227 | 438.6
333.22 K, 3861 kPa, Liquid, x1 = 0.2227 | 441.9
333.22 K, 4197 kPa, Liquid, x1 = 0.2227 | 445.2
333.22 K, 4915 kPa, Liquid, x1 = 0.2227 | 450.2
333.22 K, 5323 kPa, Liquid, x1 = 0.2227 | 453.4
333.22 K, 5731 kPa, Liquid, x1 = 0.2227 | 456.4
333.22 K, 6177 kPa, Liquid, x1 = 0.2227 | 459.5
333.22 K, 6686 kPa, Liquid, x1 = 0.2227 | 462.8
333.22 K, 7239 kPa, Liquid, x1 = 0.2227 | 466.1
333.22 K, 7781 kPa, Liquid, x1 = 0.2227 | 469.2
333.22 K, 8351 kPa, Liquid, x1 = 0.2227 | 472.3
333.22 K, 8992 kPa, Liquid, x1 = 0.2227 | 475.5
333.22 K, 9907 kPa, Liquid, x1 = 0.2227 | 479.8
333.22 K, 10643 kPa, Liquid, x1 = 0.2227 | 482.8
333.22 K, 11360 kPa, Liquid, x1 = 0.2227 | 485.8
333.22 K, 12135 kPa, Liquid, x1 = 0.2227 | 488.8
333.22 K, 12959 kPa, Liquid, x1 = 0.2227 | 491.9
333.22 K, 13811 kPa, Liquid, x1 = 0.2227 | 495
333.22 K, 14817 kPa, Liquid, x1 = 0.2227 | 498.4
333.22 K, 15868 kPa, Liquid, x1 = 0.2227 | 501.8
333.22 K, 16856 kPa, Liquid, x1 = 0.2227 | 504.8
333.22 K, 17893 kPa, Liquid, x1 = 0.2227 | 507.8
333.22 K, 18975 kPa, Liquid, x1 = 0.2227 | 510.8
333.22 K, 20100 kPa, Liquid, x1 = 0.2227 | 513.8
333.22 K, 21435 kPa, Liquid, x1 = 0.2227 | 517.2
333.22 K, 22830 kPa, Liquid, x1 = 0.2227 | 520.5
333.22 K, 24120 kPa, Liquid, x1 = 0.2227 | 523.5
333.22 K, 25466 kPa, Liquid, x1 = 0.2227 | 526.5
333.22 K, 26959 kPa, Liquid, x1 = 0.2227 | 529.7
333.22 K, 28465 kPa, Liquid, x1 = 0.2227 | 532.7
333.22 K, 30160 kPa, Liquid, x1 = 0.2227 | 536
333.22 K, 31961 kPa, Liquid, x1 = 0.2227 | 539.4
333.22 K, 33791 kPa, Liquid, x1 = 0.2227 | 542.6
333.22 K, 35752 kPa, Liquid, x1 = 0.2227 | 546
333.22 K, 37781 kPa, Liquid, x1 = 0.2227 | 549.3
333.22 K, 39778 kPa, Liquid, x1 = 0.2227 | 552.5
363.24 K, 9 kPa, Fluid (supercritical or subcritical phases), x1 = 0.2691 | 0.1
363.24 K, 313 kPa, Fluid (supercritical or subcritical phases), x1 = 0.2691 | 4.4
363.24 K, 596 kPa, Fluid (supercritical or subcritical phases), x1 = 0.2691 | 8.6
363.24 K, 842 kPa, Fluid (supercritical or subcritical phases), x1 = 0.2691 | 12.3
363.24 K, 1110 kPa, Fluid (supercritical or subcritical phases), x1 = 0.2691 | 16.6
363.24 K, 1358 kPa, Fluid (supercritical or subcritical phases), x1 = 0.2691 | 20.8
363.24 K, 1602 kPa, Fluid (supercritical or subcritical phases), x1 = 0.2691 | 25
363.24 K, 1810 kPa, Fluid (supercritical or subcritical phases), x1 = 0.2691 | 28.7
363.24 K, 2014 kPa, Fluid (supercritical or subcritical phases), x1 = 0.2691 | 32.7
363.24 K, 2204 kPa, Fluid (supercritical or subcritical phases), x1 = 0.2691 | 36.6
363.24 K, 2401 kPa, Fluid (supercritical or subcritical phases), x1 = 0.2691 | 40.6
363.24 K, 2576 kPa, Fluid (supercritical or subcritical phases), x1 = 0.2691 | 44.4
363.24 K, 2742 kPa, Fluid (supercritical or subcritical phases), x1 = 0.2691 | 48.3
363.24 K, 2905 kPa, Fluid (supercritical or subcritical phases), x1 = 0.2691 | 52.3
363.24 K, 3058 kPa, Fluid (supercritical or subcritical phases), x1 = 0.2691 | 56.2
363.24 K, 3211 kPa, Fluid (supercritical or subcritical phases), x1 = 0.2691 | 60.3
363.24 K, 3358 kPa, Fluid (supercritical or subcritical phases), x1 = 0.2691 | 64.4
363.24 K, 3493 kPa, Fluid (supercritical or subcritical phases), x1 = 0.2691 | 68.4
363.24 K, 3613 kPa, Fluid (supercritical or subcritical phases), x1 = 0.2691 | 72.3
363.24 K, 3752 kPa, Fluid (supercritical or subcritical phases), x1 = 0.2691 | 76.3
363.24 K, 3878 kPa, Fluid (supercritical or subcritical phases), x1 = 0.2691 | 80.7
363.24 K, 3964 kPa, Fluid (supercritical or subcritical phases), x1 = 0.2691 | 84.5
363.24 K, 4056 kPa, Fluid (supercritical or subcritical phases), x1 = 0.2691 | 88.4
363.24 K, 4156 kPa, Fluid (supercritical or subcritical phases), x1 = 0.2691 | 92.4
363.24 K, 4237 kPa, Fluid (supercritical or subcritical phases), x1 = 0.2691 | 96.3
363.24 K, 4354 kPa, Fluid (supercritical or subcritical phases), x1 = 0.2691 | 102.5
363.24 K, 4468 kPa, Fluid (supercritical or subcritical phases), x1 = 0.2691 | 108.5
363.24 K, 4619 kPa, Fluid (supercritical or subcritical phases), x1 = 0.2691 | 120.8
363.24 K, 4747 kPa, Fluid (supercritical or subcritical phases), x1 = 0.2691 | 132.2
363.24 K, 4838 kPa, Fluid (supercritical or subcritical phases), x1 = 0.2691 | 142.5
363.24 K, 4877 kPa, Fluid (supercritical or subcritical phases), x1 = 0.2691 | 152.9
363.24 K, 4905 kPa, Fluid (supercritical or subcritical phases), x1 = 0.2691 | 166.8
363.24 K, 4932 kPa, Fluid (supercritical or subcritical phases), x1 = 0.2691 | 180.1
363.24 K, 4954 kPa, Fluid (supercritical or subcritical phases), x1 = 0.2691 | 190.9
363.24 K, 4982 kPa, Fluid (supercritical or subcritical phases), x1 = 0.2691 | 203.7
363.24 K, 5002 kPa, Fluid (supercritical or subcritical phases), x1 = 0.2691 | 216
363.24 K, 5021 kPa, Fluid (supercritical or subcritical phases), x1 = 0.2691 | 229.7
363.24 K, 5043 kPa, Fluid (supercritical or subcritical phases), x1 = 0.2691 | 241.1
363.24 K, 5101 kPa, Fluid (supercritical or subcritical phases), x1 = 0.2691 | 254
363.24 K, 5146 kPa, Fluid (supercritical or subcritical phases), x1 = 0.2691 | 266.2
363.24 K, 5182 kPa, Fluid (supercritical or subcritical phases), x1 = 0.2691 | 277.5
363.24 K, 5220 kPa, Fluid (supercritical or subcritical phases), x1 = 0.2691 | 288.7
363.24 K, 5267 kPa, Fluid (supercritical or subcritical phases), x1 = 0.2691 | 299.6
363.24 K, 5324 kPa, Fluid (supercritical or subcritical phases), x1 = 0.2691 | 307.2
363.24 K, 5360 kPa, Fluid (supercritical or subcritical phases), x1 = 0.2691 | 313.4
363.24 K, 5410 kPa, Fluid (supercritical or subcritical phases), x1 = 0.2691 | 319.7
363.24 K, 5474 kPa, Fluid (supercritical or subcritical phases), x1 = 0.2691 | 326
363.24 K, 5549 kPa, Fluid (supercritical or subcritical phases), x1 = 0.2691 | 332.3
363.24 K, 5632 kPa, Fluid (supercritical or subcritical phases), x1 = 0.2691 | 339.4
363.24 K, 5762 kPa, Fluid (supercritical or subcritical phases), x1 = 0.2691 | 346.5
363.24 K, 5914 kPa, Fluid (supercritical or subcritical phases), x1 = 0.2691 | 353.3
363.24 K, 6056 kPa, Fluid (supercritical or subcritical phases), x1 = 0.2691 | 359.2
363.24 K, 6228 kPa, Fluid (supercritical or subcritical phases), x1 = 0.2691 | 365.4
363.24 K, 6441 kPa, Fluid (supercritical or subcritical phases), x1 = 0.2691 | 371.6
363.24 K, 6679 kPa, Fluid (supercritical or subcritical phases), x1 = 0.2691 | 377.7
363.24 K, 6961 kPa, Fluid (supercritical or subcritical phases), x1 = 0.2691 | 383.9
363.24 K, 7276 kPa, Fluid (supercritical or subcritical phases), x1 = 0.2691 | 390
363.24 K, 7639 kPa, Fluid (supercritical or subcritical phases), x1 = 0.2691 | 396.1
363.24 K, 8055 kPa, Fluid (supercritical or subcritical phases), x1 = 0.2691 | 402.1
363.24 K, 8511 kPa, Fluid (supercritical or subcritical phases), x1 = 0.2691 | 408
363.24 K, 9002 kPa, Fluid (supercritical or subcritical phases), x1 = 0.2691 | 413.7
363.24 K, 9557 kPa, Fluid (supercritical or subcritical phases), x1 = 0.2691 | 419.4
363.24 K, 10183 kPa, Fluid (supercritical or subcritical phases), x1 = 0.2691 | 425.2
363.24 K, 10878 kPa, Fluid (supercritical or subcritical phases), x1 = 0.2691 | 431.1
363.24 K, 11648 kPa, Fluid (supercritical or subcritical phases), x1 = 0.2691 | 436.9
363.24 K, 12515 kPa, Fluid (supercritical or subcritical phases), x1 = 0.2691 | 442.7
363.24 K, 13444 kPa, Fluid (supercritical or subcritical phases), x1 = 0.2691 | 448.5
363.24 K, 14452 kPa, Fluid (supercritical or subcritical phases), x1 = 0.2691 | 454.1
363.24 K, 15616 kPa, Fluid (supercritical or subcritical phases), x1 = 0.2691 | 460.1
363.24 K, 16807 kPa, Fluid (supercritical or subcritical phases), x1 = 0.2691 | 465.7
363.24 K, 18163 kPa, Fluid (supercritical or subcritical phases), x1 = 0.2691 | 471.5
363.24 K, 19596 kPa, Fluid (supercritical or subcritical phases), x1 = 0.2691 | 477.1
363.24 K, 20717 kPa, Fluid (supercritical or subcritical phases), x1 = 0.2691 | 481.2
363.24 K, 21739 kPa, Fluid (supercritical or subcritical phases), x1 = 0.2691 | 484.7
363.24 K, 22936 kPa, Fluid (supercritical or subcritical phases), x1 = 0.2691 | 488.7
363.24 K, 24149 kPa, Fluid (supercritical or subcritical phases), x1 = 0.2691 | 492.4
363.24 K, 25434 kPa, Fluid (supercritical or subcritical phases), x1 = 0.2691 | 496.2
363.24 K, 26773 kPa, Fluid (supercritical or subcritical phases), x1 = 0.2691 | 500
363.24 K, 28220 kPa, Fluid (supercritical or subcritical phases), x1 = 0.2691 | 503.8
363.24 K, 29831 kPa, Fluid (supercritical or subcritical phases), x1 = 0.2691 | 507.9
363.24 K, 31352 kPa, Fluid (supercritical or subcritical phases), x1 = 0.2691 | 511.5
363.24 K, 32889 kPa, Fluid (supercritical or subcritical phases), x1 = 0.2691 | 515
363.24 K, 34710 kPa, Fluid (supercritical or subcritical phases), x1 = 0.2691 | 519
